Data taken from patent publication US10308643B2, “Heterocyclic compound” (Takeda Pharmaceutical Company Limited, priority 2015, dated 2019).
Where a name gives a salt, the structure may show the parent alone.

What was measured:
Assay type in all cases: biochemical
HDAC6 enzyme = target: T1, HDAC6 enzyme (Homo sapiens, UniProt Q9UBN7); assay: HDAC1/6 Enzyme Inhibitory Assay (HDAC-Glo I/II Assay kit), HDAC6; details: 1 μM test compound; wells without enzyme = 100% inhibition; read-out: HDAC6 inhibitory rate (%) (1 μM)
T1 construct: transducing full length HDAC1 and HDAC6 genes into Sf-9 insect cells; GST; purchased SignalChem; host or cells: Sf-9 insect cells
T1 sequence (Q9UBN7 1-1215): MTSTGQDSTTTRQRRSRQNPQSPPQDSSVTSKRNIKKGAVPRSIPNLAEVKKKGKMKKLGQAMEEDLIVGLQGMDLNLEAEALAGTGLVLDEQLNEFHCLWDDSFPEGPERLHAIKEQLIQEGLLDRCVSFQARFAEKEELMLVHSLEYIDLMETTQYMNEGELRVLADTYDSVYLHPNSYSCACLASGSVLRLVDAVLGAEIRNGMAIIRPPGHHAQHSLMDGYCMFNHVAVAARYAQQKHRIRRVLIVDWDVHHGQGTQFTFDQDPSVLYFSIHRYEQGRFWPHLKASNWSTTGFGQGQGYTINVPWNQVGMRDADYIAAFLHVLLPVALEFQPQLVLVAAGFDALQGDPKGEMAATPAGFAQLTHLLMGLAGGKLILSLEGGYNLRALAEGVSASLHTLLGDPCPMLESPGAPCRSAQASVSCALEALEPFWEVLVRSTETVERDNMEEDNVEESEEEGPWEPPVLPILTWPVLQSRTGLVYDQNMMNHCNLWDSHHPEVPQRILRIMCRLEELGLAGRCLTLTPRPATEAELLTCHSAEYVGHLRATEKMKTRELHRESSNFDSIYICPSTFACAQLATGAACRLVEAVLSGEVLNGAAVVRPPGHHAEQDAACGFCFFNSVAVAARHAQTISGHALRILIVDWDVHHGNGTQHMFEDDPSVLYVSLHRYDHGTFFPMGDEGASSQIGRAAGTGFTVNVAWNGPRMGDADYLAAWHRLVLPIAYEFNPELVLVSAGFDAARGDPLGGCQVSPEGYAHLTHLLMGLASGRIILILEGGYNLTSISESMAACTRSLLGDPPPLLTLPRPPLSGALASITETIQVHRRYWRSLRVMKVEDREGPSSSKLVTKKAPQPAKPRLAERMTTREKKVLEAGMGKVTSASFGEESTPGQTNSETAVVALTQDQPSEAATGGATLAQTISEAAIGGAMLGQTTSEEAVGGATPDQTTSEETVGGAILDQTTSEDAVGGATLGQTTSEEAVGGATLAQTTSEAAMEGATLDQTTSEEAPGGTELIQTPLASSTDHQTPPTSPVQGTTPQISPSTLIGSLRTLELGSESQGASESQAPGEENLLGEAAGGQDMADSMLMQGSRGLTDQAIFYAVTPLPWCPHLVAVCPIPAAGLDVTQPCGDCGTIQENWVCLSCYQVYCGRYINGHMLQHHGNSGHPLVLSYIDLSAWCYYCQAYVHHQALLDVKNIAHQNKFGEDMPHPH
Procedure: (§1) HDAC1/6 Enzyme Inhibitory Assay
(§2) HDAC1 enzyme and HDAC6 enzyme each prepared by transducing full length HDAC1 and HDAC6 genes into Sf-9 insect cells and purifying by GST affinity column were purchased from SignalChem. Using these enzymes, HDAC1 and/or HDAC6 enzyme inhibitory activities of the compound of the present invention were evaluated. Enzymes were used after preserved at −70° C. HDAC1 or HDAC6 enzyme inhibitory activity of the compound of the present invention was measured using HDAC-Glo™ I/II Assay kit (Promega) according to the following experimental method. The test compound diluted with assay buffer (24 mM Tris-HCl (pH 7.5), 1 mM MgCl2, 0.35 mM KCl, 135 mM NaCl, 0.6 mM Glutathione, 0.01% Tween-20) was added to a 384-well plate by each 2 μL. Then, HDAC1 or HDAC6 enzyme solution diluted with assay buffer was added thereto by each 4 μL, and the plate was incubated at room temperature for 60 min. After incubated, HDAC substrate-Developer solution prepared according to Promega protocol attached to the assay kit was added to the 384-well plate by each 2 μL, and the enzyme reaction was started. After reacting at room temperature for 20 min, luminescence level was measured using plate reader Envision (PerkinElmer). The inhibitory activity of each compound was calculated as a relative activity value when luminescence level in wells without enzyme is considered as 100% inhibition.

HDAC1 enzyme = target: T2, HDAC1 enzyme (Homo sapiens, UniProt Q13547); assay: HDAC1/6 Enzyme Inhibitory Assay (HDAC-Glo I/II Assay kit), HDAC1; details: 1 μM test compound; wells without enzyme = 100% inhibition; read-out: HDAC1 inhibitory rate (%) (1 μM)
T2 construct: transducing full length HDAC1 and HDAC6 genes into Sf-9 insect cells; GST; purchased SignalChem; host or cells: Sf-9 insect cells
T2 sequence (Q13547 whole entry): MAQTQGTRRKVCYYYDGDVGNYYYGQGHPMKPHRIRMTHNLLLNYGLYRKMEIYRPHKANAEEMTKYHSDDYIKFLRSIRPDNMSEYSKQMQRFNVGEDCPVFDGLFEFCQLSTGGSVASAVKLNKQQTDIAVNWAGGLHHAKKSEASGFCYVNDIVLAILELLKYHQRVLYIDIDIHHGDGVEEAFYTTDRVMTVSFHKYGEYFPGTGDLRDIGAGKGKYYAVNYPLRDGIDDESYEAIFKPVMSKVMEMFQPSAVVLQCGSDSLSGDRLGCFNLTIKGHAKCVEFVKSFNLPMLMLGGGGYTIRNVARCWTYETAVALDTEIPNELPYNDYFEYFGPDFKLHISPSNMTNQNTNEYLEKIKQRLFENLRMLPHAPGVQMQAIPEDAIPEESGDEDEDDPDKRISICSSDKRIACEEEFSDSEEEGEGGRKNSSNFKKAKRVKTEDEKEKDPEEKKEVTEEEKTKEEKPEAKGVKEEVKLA
Procedure: as §1, §2

HDAC9 enzyme = target: T3, HDAC9 enzyme (Homo sapiens, UniProt Q9UKV0); assay: HDAC9 Enzyme Inhibitory Assay (HDAC-Glo class IIa); details: 1 μM test compound; wells without enzyme = 100% inhibition; read-out: HDAC9 inhibitory rate (%) (1 μM)
T3 construct: transducing full length HDAC9 gene into Sf-9 insect cells; made in house; host or cells: Sf-9 insect cells
T3 sequence (Q9UKV0 whole entry, species assumed): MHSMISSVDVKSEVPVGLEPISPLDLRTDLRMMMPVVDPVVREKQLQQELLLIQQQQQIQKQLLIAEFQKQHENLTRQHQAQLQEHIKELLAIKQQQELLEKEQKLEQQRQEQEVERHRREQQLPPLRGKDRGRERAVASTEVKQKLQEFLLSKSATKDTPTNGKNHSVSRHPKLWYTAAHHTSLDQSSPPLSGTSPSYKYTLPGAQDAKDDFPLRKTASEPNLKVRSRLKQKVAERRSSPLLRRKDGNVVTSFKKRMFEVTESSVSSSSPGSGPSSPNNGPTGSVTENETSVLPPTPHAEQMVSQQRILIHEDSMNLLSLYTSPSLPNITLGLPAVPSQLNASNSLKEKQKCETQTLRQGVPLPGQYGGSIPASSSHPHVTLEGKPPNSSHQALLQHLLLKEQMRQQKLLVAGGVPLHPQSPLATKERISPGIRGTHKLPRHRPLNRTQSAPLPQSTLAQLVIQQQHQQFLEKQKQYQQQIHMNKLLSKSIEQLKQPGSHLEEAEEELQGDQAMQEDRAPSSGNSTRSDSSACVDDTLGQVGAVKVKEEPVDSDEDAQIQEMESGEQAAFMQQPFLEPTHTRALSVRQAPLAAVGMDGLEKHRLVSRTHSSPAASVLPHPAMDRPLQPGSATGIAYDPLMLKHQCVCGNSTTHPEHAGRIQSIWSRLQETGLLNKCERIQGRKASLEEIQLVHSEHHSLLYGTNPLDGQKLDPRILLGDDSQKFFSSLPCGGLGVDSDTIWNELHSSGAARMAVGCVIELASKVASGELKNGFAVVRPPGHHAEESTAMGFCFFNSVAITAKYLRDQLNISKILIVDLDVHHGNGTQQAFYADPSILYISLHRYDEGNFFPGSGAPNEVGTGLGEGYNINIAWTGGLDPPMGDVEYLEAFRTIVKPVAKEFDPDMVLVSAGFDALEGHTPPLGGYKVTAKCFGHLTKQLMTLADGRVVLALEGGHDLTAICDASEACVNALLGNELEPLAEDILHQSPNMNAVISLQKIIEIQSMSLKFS
Procedure: HDAC9 Enzyme Inhibitory Assay
Enzyme was prepared by transducing full length HDAC9 gene into Sf-9 insect cells and purifying by Ni-NTA affinity column, and HDAC9 enzyme inhibitory activity was evaluated. Enzymes were used after preserved at −70° C. HDAC9 enzyme inhibitory activity of the test compound was measured using HDAC-Glo class IIa (Promega) according to the following experimental method. The test compound diluted with assay buffer (24 mM Tris-HCl (pH 7.5), 1 mM MgCl2, 0.35 mM KCl, 135 mM NaCl, 0.6 mM Glutathione, 0.01% Tween-20) was added to a 384-well plate by each 2 μL. Then, HDAC9 enzyme solution diluted with assay buffer was added thereto by each 2 μL, and the plate was incubated at room temperature for 60 min. After incubated, HDAC substrate-Developer solution prepared according to Promega protocol was added to the 384-well plate by each 4 μL, and the enzyme reaction was started. After reacting at room temperature for 20 min, luminescence level was measured using plate reader Envision (PerkinElmer). The inhibitory activity of each compound was calculated as a relative activity value when luminescence level in wells without enzyme is considered as 100% inhibition.

inhibition at 1 µM (HDAC6 enzyme) [%]	inhibition at 1 µM (HDAC1 enzyme) [%]	inhibition at 1 µM (HDAC9 enzyme) [%]	Compound
97	30	84	CC(C)(C)OC(=O)N1CC[C@H](N2Cc3ccc(-c4noc(C(F)(F)F)n4)cc3C2=O)[C@@H](c2ccccc2)C1 [Example 30, tert-butyl (3S,4S)-4-(1-oxo-6-(5-(trifluoromethyl)-1,2,4-oxadiazol-3-yl)-1,3-dihydro-2H-isoindol-2-yl)-3-phenylpiperidine-1-carboxylate]
98	11	47	CC(C)(C)OC(=O)N[C@@H]1CCCC[C@H]1N1Cc2ccc(-c3noc(C(F)(F)F)n3)cc2C1=O [Example 26, tert-butyl ((1R,2R)-2-(1-oxo-6-(5-(trifluoromethyl)-1,2,4-oxadiazol-3-yl)-1,3-dihydro-2H-isoindol-2-yl)cyclohexyl)carbamate]
98	87	96	CC(=O)N1CC[C@@H](N2Cc3ccc(-c4noc(C(F)(F)F)n4)cc3C2=O)[C@H](c2ccccc2)C1 [Example 20, 2-((3R,4R)-1-acetyl-3-phenylpiperidin-4-yl)-6-(5-(trifluoromethyl)-1,2,4-oxadiazol-3-yl)isoindolin-1-one]
100	94	99	O=C1c2cc(-c3noc(C(F)(F)F)n3)ccc2CN1[C@@H]1CCNC[C@H]1c1ccc(F)cc1 (relative stereo) [Example 45, 2-(trans-3-(4-fluorophenyl)piperidin-4-yl)-6-(5-(trifluoromethyl)-1,2,4-oxadiazol-3-yl)isoindolin-1-one]
99		66	O=C1CCCN1[C@@H]1CCCC[C@H]1N1Cc2ccc(-c3noc(C(F)(F)F)n3)cc2C1=O [Example 191, 2-((1R,2R)-2-(2-oxopyrrolidin-1-yl)cyclohexyl)-6-(5-(trifluoromethyl)-1,2,4-oxadiazol-3-yl)isoindolin-1-one]
98	88	95	CCNC(=O)N1CC[C@@H](N2Cc3ccc(-c4noc(C(F)(F)F)n4)cc3C2=O)[C@H](c2ccccc2)C1 [Example 44, (3R,4R)-N-ethyl-4-(1-oxo-6-(5-(trifluoromethyl)-1,2,4-oxadiazol-3-yl)-1,3-dihydro-2H-isoindol-2-yl)-3-phenylpiperidine-1-carboxamide]
99	5	34	O=C(N[C@@H]1CCCC[C@H]1N1Cc2ccc(-c3noc(C(F)(F)F)n3)cc2C1=O)N1CC(F)(F)C1 [Example 162, 3,3-difluoro-N-((1R,2R)-2-(1-oxo-6-(5-(trifluoromethyl)-1,2,4-oxadiazol-3-yl)-1,3-dihydro-2H-isoindol-2-yl)cyclohexyl)azetidine-1-carboxamide]
96	52	95	O=C(c1ccccc1)N1CCC(N2Cc3ncc(-c4noc(C(F)(F)F)n4)cc3C2=O)C1 (stereo not drawn) [Example 70, 6-(1-benzoylpyrrolidin-3-yl)-3-(5-(trifluoromethyl)-1,2,4-oxadiazol-3-yl)-6,7-dihydro-5H-pyrrolo[3,4-b]pyridin-5-one]
100	3	26	CC1(C(=O)N[C@@H]2CCCC[C@H]2N2Cc3ccc(-c4noc(C(F)(F)F)n4)cc3C2=O)CNC1 [Example 194, 3-methyl-N-((1R,2R)-2-(1-oxo-6-(5-(trifluoromethyl)-1,2,4-oxadiazol-3-yl)-1,3-dihydro-2H-isoindol-2-yl)cyclohexyl)azetidine-3-carboxamide]
98	8	64	O=C1CCCN1[C@@H]1COCC[C@H]1N1Cc2ccc(-c3noc(C(F)(F)F)n3)cc2C1=O [Example 177, 2-((3S,4R)-3-(2-oxopyrrolidin-1-yl)tetrahydro-2H-pyran-4-yl)-6-(5-(trifluoromethyl)-1,2,4-oxadiazol-3-yl)isoindolin-1-one]
97	2	35	O=C1NCCC1C(=O)N[C@@H]1CCCC[C@H]1N1Cc2ccc(-c3noc(C(F)(F)F)n3)cc2C1=O (stereo partly drawn) [Example 108, 2-oxo-N-((1Rr2R)-2-(1-oxo-6-(5-(trifluoromethyl)-l ,2,4-oxadiazol-3-yl)-1,3-dihydro-2H-isoindol-2-yl)cyclohexyl)pyrrolidine-3-carboxamide]
100	85	96	O=C1c2cc(-c3noc(C(F)(F)F)n3)ccc2CN1C1CCNC[C@@H]1c1ccccc1 (stereo partly drawn) [Example 22, 2-((3S,4R)-3-phenyipiperidin-4-yl)-6-(5-(trifluoromethyl)-1,2,4-oxadiazol-3-yl)isoindolin-1-one, hydrochloride]
96	0	23	O=C1CC[C@H](C(=O)N[C@@H]2CCCC[C@H]2N2Cc3ccc(-c4noc(C(F)(F)F)n4)cc3C2=O)N1 [Example 92, 5-oxo-N-((1R,2R)-2-(1-oxo-6-(5-(trifluoromethyl)-1,2,4-oxadiazol-3-yl)-1,3-dihydro-2H-isoindol-2-yl)cyclohexyl)-D-prolinamide]
99		47	O=C1CCCN1[C@@H]1CCCC[C@H]1N1Cc2ccc(-c3noc(C(F)(F)F)n3)cc2C1=O (relative stereo) [Example 18, trans-2-(2-(2-oxopyrrolidin-1-yl)cyclohexyl)-6-(5-(trifluoromethyl)-1,2,4-oxadiazol-3-yl)isoindolin-1-one]
8		55	O=C1c2ccc(-c3noc(C(F)(F)F)n3)cc2CN1c1ccccc1 [Example 1, 2-phenyl-5-(5-(trifluoromethyl)-1,2,4-oxadiazol-3-yl)isoindolin-1-one]

Compound	inhibition at 1 µM (HDAC6 enzyme) [%]	inhibition at 1 µM (HDAC1 enzyme) [%]	inhibition at 1 µM (HDAC9 enzyme) [%]
O=C(N[C@@H]1CCCC[C@H]1N1Cc2ccc(-c3noc(C(F)(F)F)n3)cc2C1=O)N1C2CCCC1COC2 [Example 167, N-((1R,2R)-2-(1-oxo-6-(5-(trifluoromethyl)-1,2,4-oxadiazol-3-yl)-1,3-dihydro-2H-isoindol-2-yl)cyclohexyl)-3-oxa-9-azabicyclo[3.3.1]nonane-9-carboxamide]	101	7	34
